# According to patent US8541344B2, “Compositions with cyclopropenes and metal-complexing agents” (Rohm and Haas Company, priority 2004, dated 2013):
# Structures can show the parent of a compound that is named as a salt.
# Assays:
# [1] = Cyclopropene release measurement (headspace gas chromatography); format: physicochemical; details: for effect on % release of 1-MCP (in words): compared to the 13% with no agent
# Protocol: Cyclopropene Headspace Measurement Method:
# A composition containing water and cyclopropene was sealed in a bottle equipped with a septum in a manner that leaves a portion of the volume of the bottle filled with gas; a portion of the headspace was analyzed for cyclopropene at 1 hour after injection. The analysis method was gas chromatography using the following parameters:
# Cyclopropene Release Measurement
# The release of cyclopropene from a mixture of water and cyclopropene was measured as follows.
# From the measure concentration of cyclopropene in the headspace and the amount of cyclopropene added to the bottle, the fraction of the total amount of cyclopropene in the bottle that resides in the headspace can be calculated and reported as a percentage based on the amount of cyclopropene added to the bottle.
# [2] = system: Tomatoes (Rutgers 39 Variety); assay: Tomato epinasty test; format: in vivo; details: for % Control of Epinasty: foliar spray, 1-MCP 140 ppb, ethylene 14 ppm 12-14 hours
# Protocol: Tomato epinasty tests were performed as follows:
# Tomatoes (Rutgers 39 Variety Harris Seeds No 885 Lot 37729-A3) were grown in 2½″ square pots filled with a commercial potting mix. Two seeds were place in each pot. Plants that had expanded first true leaves and were between 3 and 5 inches high were used for the tomato epinasty test.
# To conduct the assay, the plants were sprayed to run off with the test 1-MCP foliar spray and allowed to dry for 4 hours in sunlight These operations were performed in a ventilated area away from the plants growing in the greenhouse so there would not be any unintended treatment to growing plants destined for later experiments.
# The 1-MCP treated plants and both treated and untreated controls were placed into an SLX controlled-atmosphere shipping box and sealed. To the box, ethylene was injected through a septum, which gave a concentration of 14 ppm. The plants were held sealed for 12-14 hours in the dark with ethylene in the atmosphere. At the end of ethylene treatment, the box was opened and scored for epinasty. Scoring for epinasty was accomplished by using the following scoring system for each pot. • 1. 0% no epinasty (100% control) • 2. 20% A couple leaves show some drooping (80% control) • 3. 50% Plants show 50% of full response. Not all leaves need to show effect. (50% control) • 4. 80% Almost all leaves drooping and some show underside of leaf exposed on top. (20% control) • 5. 100% Leaves completely drooping and the underside of the leaf exposed from above. (0% control)
# The score of each pot is recorded. The average of 6 or 8 pots is averaged to get a score. The percentage improvement is calculated by interpolating the percentage improvement from the control water (i.e., no additives) 1-MCP treatment.
# Tomato epinasty tests were conducted using a formulation that included water; a 1-MCP α-CD complex that contained 0.14% 1-MCP by weight, based on the weight of the 1-MCP α-CD complex; and sodium salt of EDTA. The amount of 1-MCP α-CD complex was chosen so that the formulation had 140 ppb of 1-MCP. Also included in the formulation were an anionic surfactant (0.1% by weight based on the weight of the formulation), isopropanol (1% by weight based on the weight of the formulation), and a spray oil (1% by weight based on the weight of the formulation).
# [3] = deionized water #1, 5 ppm copper ion, metal-complexing agent 1 mM
# [4] = deionized water #1, 5 ppm copper ion, metal-complexing agent 5 mM
# [5] = deionized water #1, 5 ppm copper ion, metal-complexing agent 10 mM
smiles,measurement,setting,value
"CC1=CC1 [1-MCP, 1-methylcyclopropene, reference compound]",% Release of 1-MCP,"[1]; 1-MCP α-CD complex in deionized #1 water, no metal-complexing agent",100%
same,% Release of 1-MCP,"[1]; 1-MCP α-CD complex in deionized #2 water, no metal-complexing agent",60%
same,% Release of 1-MCP,"[1]; 1-MCP α-CD complex in filtered (MilliQ) water, no metal-complexing agent",100%
same,% Release of 1-MCP,"[1]; 1-MCP α-CD complex in tap #1 water, no metal-complexing agent, headspace at 1 hour",60%
same,% Release of 1-MCP,"[1]; 1-MCP α-CD complex in tap #2 water, no metal-complexing agent, headspace at 1 hour",13%
same,activity of 1-MCP (in words),[1]; copper ions without sodium salt of EDTA,reduction in activity
same,activity of 1-MCP (in words),"[1]; copper ions, sodium salt of EDTA added 2 hours after the 1-MCP α-CD complex",fails to maintain the activity
same,activity of 1-MCP (in words),"[1]; copper ions, sodium salt of EDTA added to the water before the 1-MCP α-CD complex",maintains the full activity
same,% Release of 1-MCP,"[1]; deionized water #1, copper ions 0 ppm, sodium salt of EDTA 0 mM",100%
same,% Release of 1-MCP,"[1]; deionized water #1, copper ions 1 ppm, sodium salt of EDTA 0 mM",54%
same,% Release of 1-MCP,"[1]; deionized water #1, copper ions 5 ppm, sodium salt of EDTA 0 mM",36%
same,% Release of 1-MCP,"[1]; deionized water #1, copper ions 5 ppm, sodium salt of EDTA 11 mM added 2 hours after 1-MCP α-CD complex, headspace 1 hour later",37%
same,% Release of 1-MCP,"[1]; deionized water #1, copper ions 5 ppm, sodium salt of EDTA 11 mM added before the 1-MCP α-CD complex",100%
same,% Release of 1-MCP,"[1]; deionized water #1, copper ions 10 ppm (cupric sulfate), sodium salt of EDTA 0 mM",10%
same,control of epinasty (in words),[2]; deionized water with 1-MCP,does control epinasty
same,% Control of Epinasty,"[2]; de-ionized water, EDTA 0 mM",100%
same,% Control of Epinasty,"[2]; well water, EDTA 0 mM",0%
same,% Control of Epinasty,"[2]; well water, EDTA 0.003 mM",80%
same,control of epinasty (in words),[2]; well water with 1-MCP,does not control epinasty
same,control of epinasty (in words),[2]; well water with 1-MCP and sodium salt of EDTA,does control epinasty
"O=C(O)CC(O)(CC(=O)O)C(=O)O [Citric Acid, citric acid]",% Release of 1-MCP,"[1]; tap #2 water, citric acid 1 milliMolar added first",63%
same,% Release of 1-MCP,"[1]; tap #2 water, citric acid 10 milliMolar added first",100%
same,% Release of 1-MCP,"[1]; tap #2 water, citric acid 100 milliMolar added first",92%
same,effect on % release of 1-MCP (in words),[1]; tap #2 water,improves the % release dramatically
O=C([O-])[O-].[Na+].[Na+] [sodium carbonate],% Release of 1-MCP,[1]; [3],61%
same,% Release of 1-MCP,[1]; [4],68%
same,% Release of 1-MCP,[1]; [5],71%
"O=C(O)C(O)C(O)C(=O)O (centres unmarked) [Tartaric acid, tartaric acid]",% Release of 1-MCP,[1]; [3],99%
same,% Release of 1-MCP,[1]; [4],85%
same,% Release of 1-MCP,[1]; [5],92%
"O=C(O)CN(CCN(CC(=O)O)CC(=O)O)CC(=O)O [Sodium Salt of EDTA, ethylenediaminetetraacetic acid]",effect on % release of 1-MCP (in words),[1]; tap #2 water,improves the % release dramatically
same,% Release of 1-MCP,"[1]; tap #2 water, sodium salt of EDTA 0.00001 milliMolar",87%
same,% Release of 1-MCP,"[1]; tap #2 water, sodium salt of EDTA 0.0001 milliMolar",100%
same,% Release of 1-MCP,"[1]; tap #2 water, sodium salt of EDTA 0.001 milliMolar",100%
same,% Release of 1-MCP,"[1]; tap #2 water, sodium salt of EDTA 0.01 milliMolar",100%
same,% Release of 1-MCP,"[1]; tap #2 water, sodium salt of EDTA 0.1 milliMolar",100%
same,% Release of 1-MCP,"[1]; tap #2 water, sodium salt of EDTA 1 milliMolar",100%
same,% Release of 1-MCP,"[1]; tap #2 water, sodium salt of EDTA 10 milliMolar",100%
O=C(O)CN(CC(=O)O)CC(=O)O [nitrilotriacetic acid],% Release of 1-MCP,[1]; [3],97%
same,% Release of 1-MCP,[1]; [4],100%
same,% Release of 1-MCP,[1]; [5],95%
O=P([O-])([O-])OP(=O)([O-])[O-].[Na+].[Na+].[Na+].[Na+] [tetrasodium pyrophosphate],% Release of 1-MCP,[1]; [3],42%
same,% Release of 1-MCP,[1]; [4],39%
same,% Release of 1-MCP,[1]; [5],54%
